Test results: PMC8067632, “Assessment and Development of the Antifungal Agent Caspofungin for Aerosolized Pulmonary Delivery” (Pharmaceutics, 2021)

Assays:
[1] = Aerosol characterization (PARI LC Star nebulizer, QCM cascade impactor); assay type: physicochemical; settings: 10 mg/mL caspofungin diacetate, determined once
Experimental: Aerosol particle size distribution was determined once with a quartz crystal microbalance (QCM) cascade impactor (California Measurements Inc., Sierra Madre, CA, USA) equipped with 10 stages to collect size-segregated samples. The mass median aerodynamic diameter (MMAD) and geometric standard deviation (GSD) were calculated from the mass accumulated on each collection stage of the QCM. Each formulation was tested by aerosolizing it with a PARI LC Star nebulizer (PARI Respiratory Equipment, Inc., Midlothian, VA, USA) connected to compressed air at 28 psi. The air flow to the nebulizer was about 6.2 L/min. Approximately 7 mL of the test formulation solution was placed in the nebulizer, weighed and connected to the air supply for aerosolization. The nebulizer was operated for 12 min, and post weighed. The generated aerosol was delivered into a plenum with a narrow opening. A stream of test aerosol was sampled from the plenum for particle size determination. A Quartz Crystal Microbalance based cascade impactor (TSI Inc., Shoreview, MN, USA) was used for these determinations. Details of the formulation preparations are described in Supplementary Material S3.
S3. Aerosol Characterization
(PVP K30, 100 mg/mL) were prepared. […]
osols for the purpose of comparing particle size.
S3.1. Preparation of Caspofungin Diacetate Stock Solution: […]
and recorded once during the exposure. […]

[2] = IV administration, lung tissue; cited from earlier work
Experimental: Morphologically Aspergillus grows and propagates within the lung cavity. […] This may explain low human efficacy (40%) of caspofungin in treating IPA. Drug concentr ... || Caspofungin for injection (tradename: […]®) is sold by Merck & Co., Inc. The approved […]® dose is a 70 mg loading dose and then 50 mg/daily. Previous intravenous (IV) studies with caspofungin in animals have shown that IV administered drug only delivers about 5% of the drug level in blood to the lungs. […] Most of the IV drugs is distributed to other sensitive target organs, such as the liver and kidneys, which if given in higher doses, can lead ...

Compound: CC[C@H](C)C[C@H](C)CCCCCCCCC(=O)N[C@H]1C[C@@H](O)[C@@H](NCCN)NC(=O)[C@@H]2[C@@H](O)CCN2C(=O)[C@H]([C@H](O)CCN)NC(=O)[C@H]([C@H](O)[C@@H](O)c2ccc(O)cc2)NC(=O)[C@@H]2C[C@@H](O)CN2C(=O)[C@H]([C@@H](C)O)NC1=O [Caspofungin Diacetate]
- MMAD (Mass Median Aerodynamic Diameter) [1]: 1.15 microns
- percentage of IV delivered drug detected in lung [2]: about 5%
